Measured values as given in US12472185B2, “Methods for killing antibiotic tolerant bacteria” (THE PENN STATE RESEARCH FOUNDATION, priority 2020, dated 2025).
Where “and” joins values, the source holds several entries; their conditions need not be identical. Identical values can stand only once.

Assays:
E. coli K-12 BW25113 = experiment: Minimum inhibitory concentration (MIC); type: cell-based; conditions: Escherichia coli, LB, 24 hr
Description: (§1) The bacteria used in this study are E. coli K-12 BW25113 (Baba et al., 2006), S. aureus ATCC29213, and P. aeruginosa PA14 (Liberati et al., 2006). Lysogeny broth (LB; Bertani, 1951) was used at 37° C. for culturing the bacteria. 2-(Aminomethyl)-indole was obtained from Sigma-Aldrich (catalog number 563838), and 2-methyl-5-nitro-3-phenyl-1H-indole was obtained from ChemBridge (San Diego, CA).
(§2) To determine the MICs of NPIMA and 5-iodoindole for E. coli K-12, S. aureus, and P. aeruginosa PA14, cells were inoculated into LB at varying concentrations and grown for 24 hr. The MIC was determined as the lowest concentration that prevented an increase in growth as evidenced by a lack of change of turbidity.

P. aeruginosa PA14 = experiment: Minimum inhibitory concentration (MIC); type: cell-based; conditions: Pseudomonas aeruginosa, LB, 24 hr
Description: as §1, §2

S. aureus ATCC29213 = experiment: Minimum inhibitory concentration (MIC); type: cell-based; conditions: Staphylococcus aureus, LB, 24 hr
Description: as §1, §2

[1] = system: E. coli BW25113 persister cells; experiment: Survival of persister cells (rifampicin/ampicillin generated); type: cell-based, Escherichia coli; conditions: 100 μM
Description: FIG. 3. NPIMA kills Escherichia coli, Pseudomonas aeruginosa, persister cells. Survival of (a) E. coli BW25113 and (b) P. aeruginosa PA14 after treatment with NPIMA (100 μM), 5-iodoindole (5-II, 100 μM), and DMSO for 6 hr. Asterisk indicates no viable cells detected. DMSO, dimethyl sulfoxide; NPIMA, 5-nitro-3-phenyl-1H-indol-2-yl-methylamine hydrochloride.
E. coli persister cells were prepared following our previous method (Kim, Yamasaki, et al., 2018; Kwan, Valenta, Benedik, & Wood, 2013). Exponentially-growing cells (turbidity of 0.8 at 600 nm) were treated with rifampicin (100 μg/ml for 30 min) to stop transcription, washed, and any remaining nonpersister cells were lysed by ampicillin in LB (100 μg/ml for 3 hr). Cells were harvested by centrifugation (17,000 g for 1 min) and washed with 1× phosphate-buffered saline buffer (PBS, 8 g NaCl, 0.2 g KCl, 1.15 g Na2HPO4, and 0.2 g KH2PO4 per 1,000 ml) twice to remove all possible carbon sources, then resuspended with 1×PBS. Natural E. coli persister cells were generated by treating stationary-phase cells (turbidity of 6 at 600 nm) with ampicillin (100 μg/ml) for 3 hr. P. aeruginosa PA14 persister cells were prepared by incubating to the stationary phase, diluting sixfold, and treating with carbonyl cyanide m-chlorophenylhydrazone (CCCP, 50 mg/ml stock solution in dimethly sulfoxide [DMSO]) to stop adenosine triphosphate (ATP) production (200 μg/ml for 3 hr), washed twice with 0.85% NaCl (5,000 g for 10 min), and any nonpersister cells were killed by ciprofloxacin (5 μg/ml) in LB for 3 hr. Following the antibiotic treatment, bacteria were washed twice with 0.85% NaCl (5,000 g for 10 min).
For bacterial viability, cells were washed twice with 0.85% NaCl, resuspended in 1×PBS, and cell counts were determined via the drop assay (Donegan, Matyac, Seidler, & Porteous, 1991). […] Cell viability was determined via a cell counting kit (CCK-8 Kit, ab228554; Abcam), and cytotoxicity was determined via the lactate dehydrogenase (LDH) assay (LDH Assay Kit, MK401; Takara).

[2] = system: P. aeruginosa PA14 exponential cells; experiment: Survival of exponentially-growing cells (drop assay); type: cell-based, Pseudomonas aeruginosa; conditions: 100 μM
Description: FIG. 2. NPIMA eradicates Escherichia coli, Pseudomonas aeruginosa, and Staphylococcus aureus exponential cells. Survival after 6 hr for (a) E. coli BW25113 with NPIMA and 5-iodoindole at 100 μM, (b) P. aeruginosa PA14 with NPIMA and 5-iodoindole at 100 μM, and (c) S. aureus with NPIMA and 5-iodoindole at 200 μM. Asterisk indicates no viable cells detected. NPIMA, 5-nitro-3-phenyl-1H-indol-2-yl-methylamine hydrochloride.
(§3) For bacterial viability, cells were washed twice with 0.85% NaCl, resuspended in 1×PBS, and cell counts were determined via the drop assay (Donegan, Matyac, Seidler, & Porteous, 1991). For human cell viability, pre-cultured human cancer HT-29 cells were dispensed in 98 μl in 96-well plates with approximately 5,000 cells/well. NPIMA was added (2 μl) to produce concentrations of 5, 10, 100, and 200 μM. For controls, Triton X-100 (positive control) and DMSO (negative solvent control), were used, and the medium was used for background. Plates were incubated in a humidified incubator (37° C., 5% CO2) for 24 hr. Cell viability was determined via a cell counting kit (CCK-8 Kit, ab228554; Abcam), and cytotoxicity was determined via the lactate dehydrogenase (LDH) assay (LDH Assay Kit, MK401; Takara).

E. coli BW25113 = experiment: Lysis assays (total protein and DNA in supernatants); type: cell-based, Escherichia coli; conditions: 100 μM, 1 hr
Description: FIG. 5. NPIMA lyses Escherichia coli, Pseudomonas aeruginosa, and Staphylococcus aureus. Total protein (a) and DNA (b) found in supernatants as evidence of cell lysis after treatment of cells at a turbidity of 0.8 at 600 nm with 100 μM NPIMA after 1 hr for E. coli and P. aeruginosa and 6 hr for S. aureus. NPIMA, 5-nitro-3-phenyl-1H-indol-2-yl-methylamine hydrochloride.
Exponentially-growing E. coli BW25113 cells (turbidity 0.8 at 600 nm) were washed twice with 0.85% NaCl, resuspended in 1 ml of 1×PBS, and NPIMA (100 μM) was added for 1 hr for E. coli and P. aeruginosa and 6 hr for S. aureus with shaking at 250 rpm (0.1% DMSO was used as the negative control). Cell supernatants were collected after centrifuging at 6,500 g (4° C. for 15 min), and total protein was measured by the Bicinchoninic Acid (BCA) protein assay Kit (Prod #23227; Pierce). DNA in the supernatant (199 μl) was detected by adding 1 μl of Picogreen (P7589; Invitrogen) and incubating for 5 min at room temperature in the dark room. The fluorescence signal was read by a Tecan microplate reader (Infinite M200PRO) with 480 nm excitation and 520 nm emission by utilizing a calibration curved made with plasmid pEX18Ap at 0, 0.004, 0.008, 0.016, 0.063, 0.125, 0.25, and 0.5 ng/μl.

[3] = system: E. coli exponentially-growing cells; experiment: Killing at one MIC in PBS, NPIMA compared with cisplatin; type: cell-based, Escherichia coli; conditions: 3 hr
From the text: FIG. 7. NPIMA compared width cisplatin for killing Pseudomonas aeruginosa, Escherichia coli, and Staphylococcus aureus. Survival of exponentially-growing cells of P. aeruginosa PA14 (a), E. coli (b), and S. aureus (c) treated with one MIC of NPIMA (♦) and cisplatin (●) for 3 hr in PBS. DMSO (▴) and NaClO4 (*) were used as a negative controls. MIC, minimum inhibitory concentration; NPIMA, 5-nitro-3-phenyl-1H-indol-2-yl-methylamine hydrochloride.
as §3

Cl.NCc1[nH]c2ccc([N+](=O)[O-])cc2c1-c1ccccc1 [NPIMA, [(5-nitro-3-phenyl-1H-indol-2-yl)methyl]amine hydrochloride]
MIC (E. coli K-12 BW25113): 100 µM and 15 µg/mL | MIC (P. aeruginosa PA14): 250 µM | MIC (S. aureus ATCC29213): 100 µM | time to eradicate E. coli persisters [1]: 6 h | killing of E. coli persister cells ([1]; 6 hr): eradicated | time to eradicate exponentially-growing P. aeruginosa PA14 cells [2]: 6 h | increase in DNA in the supernatants compared to DMSO alone (E. coli BW25113): 3.8±0.8 | increase in total cell protein in supernatants compared to DMSO alone (E. coli BW25113): 10±2 | effectiveness relative to cisplatin [3]: more effective than cisplatin
